{"source": "paper PMC12638379", "about": "“An innovative approach to development of new pyrazolylquinolin-2-one hybrids as dual EGFR and BRAF^V600E inhibitors” (Molecular Diversity, 2025)", "tested_on": "NCI 60 cancer cell lines", "assay": "NCI anticancer screening over a panel of 60 cancer cells, single concentration 10 µM", "format": "cell-based, human", "conditions": "Homo sapiens, read-out: % Growth Inhibition (GI %)", "method": "Ten final compounds 4a–j and five intermediates 2a–e have been selected by the National Cancer Institute (NCI) for anticancer screening over a panel of 60 cancer cells that cover a variety of histological tissues, including the central nervous system, leukemia, lung, colon, kidney, ovary, breast, and prostate, using the protocol established by the National Cancer Institute (NCI). In a primary screening, each compound was screened at a concentration of 10 µM.\nCompounds 2a-e and 4a-j were selected by the National Cancer Institute (NCI) according to the protocol of the Compound Evaluation Branch of the National Cancer Institute, Bethesda, USA, for in vitro anticancer screening which refers in turn to apoptotic activity. The methodology of the NCI anticancer screening has been described in detail elsewhere (http://www.dtp.nci.nih.gov).", "note": "Read-outs that look alike come from different tables or passages of the source."}
{"smiles": "COc1ccc2[nH]c(=O)cc(-n3ncc(/C(C)=N/Nc4ccc(S(N)(=O)=O)cc4)c3C)c2c1", "note": "[Compound 4c, (E)-4-(2-(1-(1-(6-methoxy-2-oxo-1,2-dihydroquinolin-4-yl)-5-methyl-1H-pyrazol-4-yl)ethylidene)hydrazineyl)benzenesulfonamide]", "values": [{"measurement": "inhibition at 10 µM", "setting": "786-0, Renal cancer 786-0, 10 μM", "result": "< 5", "unit": "%"}, {"measurement": "inhibition at 10 µM", "setting": "A498, Renal cancer A498, 10 μM", "result": 7.1, "unit": "%"}, {"measurement": "inhibition at 10 µM", "setting": "A549, Non-small cell lung cancer A549/ATCC, 10 μM", "result": "< 5", "unit": "%"}, {"measurement": "inhibition at 10 µM", "setting": "ACHN, Renal cancer ACHN, 10 μM", "result": "< 5", "unit": "%"}, {"measurement": "inhibition at 10 µM", "setting": "BT-549, Breast cancer BT-549, 10 μM", "result": "< 5", "unit": "%"}, {"measurement": "inhibition at 10 µM", "setting": "CAKI-1, Renal cancer CAKI-1, 10 μM", "result": "< 5", "unit": "%"}, {"measurement": "inhibition at 10 µM", "setting": "CCRF-CEM, Leukemia CCRF-CEM, 10 μM", "result": "< 5", "unit": "%"}, {"measurement": "inhibition at 10 µM", "setting": "COLO 205, Colon cancer COLO 205, 10 μM", "result": "< 5", "unit": "%"}, {"measurement": "inhibition at 10 µM", "setting": "DU-145, Prostate cancer DU-145, 10 μM", "result": "< 5", "unit": "%"}, {"measurement": "inhibition at 10 µM", "setting": "HCC 2998, Colon cancer HCC-2998, 10 μM", "result": "< 5", "unit": "%"}, {"measurement": "inhibition at 10 µM", "setting": "HCT-116, Colon cancer HCT-116, 10 μM", "result": "< 5", "unit": "%"}, {"measurement": "inhibition at 10 µM", "setting": "HL-60, Leukemia HL-60(TB), 10 μM", "result": "< 5", "unit": "%"}, {"measurement": "inhibition at 10 µM", "setting": "HOP-92, Non-small cell lung cancer HOP-92, 10 μM", "result": "< 5", "unit": "%"}, {"measurement": "inhibition at 10 µM", "setting": "HT-29, Colon cancer HT29, 10 μM", "result": "< 5", "unit": "%"}, {"measurement": "inhibition at 10 µM", "setting": "IGROV-1, Ovarian cancer IGROV1, 10 μM", "result": "< 5", "unit": "%"}, {"measurement": "inhibition at 10 µM", "setting": "K562, Leukemia K-562, 10 μM", "result": "< 5", "unit": "%"}, {"measurement": "inhibition at 10 µM", "setting": "KM12, Colon cancer KM12, 10 μM", "result": "< 5", "unit": "%"}, {"measurement": "inhibition at 10 µM", "setting": "Leukemia SR, 10 μM", "result": 13, "unit": "%"}, {"measurement": "inhibition at 10 µM", "setting": "MCF7, Breast cancer MCF7, 10 μM", "result": 6.69, "unit": "%"}, {"measurement": "inhibition at 10 µM", "setting": "MDA-MB-231, Breast cancer MDA-MB-231/ATCC, 10 μM", "result": 8.98, "unit": "%"}, {"measurement": "inhibition at 10 µM", "setting": "MDA-MB-435, Melanoma MDA-MB-435, 10 μM", "result": "< 5", "unit": "%"}, {"measurement": "inhibition at 10 µM", "setting": "MDA-MB-468, Breast cancer MDA-MB-468, 10 μM", "result": 7.22, "unit": "%"}, {"measurement": "inhibition at 10 µM", "setting": "MOLT-4, Leukemia MOLT-4, 10 μM", "result": "< 5", "unit": "%"}, {"measurement": "inhibition at 10 µM", "setting": "Melanoma M14, 10 μM", "result": "< 5", "unit": "%"}, {"measurement": "inhibition at 10 µM", "setting": "Melanoma MALM-3M, 10 μM", "result": 10.6, "unit": "%"}, {"measurement": "inhibition at 10 µM", "setting": "NCI-H23, Non-small cell lung cancer NCI-H23, 10 μM", "result": 6, "unit": "%"}, {"measurement": "inhibition at 10 µM", "setting": "NCI-H226, Non-small cell lung cancer NCI-H226, 10 μM", "result": 8.4, "unit": "%"}, {"measurement": "inhibition at 10 µM", "setting": "NCI-H460, Non-small cell lung cancer NCI-H460, 10 μM", "result": "< 5", "unit": "%"}, {"measurement": "inhibition at 10 µM", "setting": "NCI-H522, Non-small cell lung cancer NCI-H522, 10 μM", "result": 11.8, "unit": "%"}, {"measurement": "inhibition at 10 µM", "setting": "OVCAR-3, Ovarian cancer OVCAR-3, 10 μM", "result": "< 5", "unit": "%"}, {"measurement": "inhibition at 10 µM", "setting": "OVCAR-4, Ovarian cancer OVCAR-4, 10 μM", "result": "< 5", "unit": "%"}, {"measurement": "inhibition at 10 µM", "setting": "OVCAR-5, Ovarian cancer OVCAR-5, 10 μM", "result": "< 5", "unit": "%"}, {"measurement": "inhibition at 10 µM", "setting": "OVCAR-8, Ovarian cancer OVCAR-8, 10 μM", "result": "< 5", "unit": "%"}, {"measurement": "inhibition at 10 µM", "setting": "Prostate cancer PC-3, 10 μM", "result": "< 5", "unit": "%"}, {"measurement": "inhibition at 10 µM", "setting": "RPMI-8226, Leukemia RPMI-8226, 10 μM", "result": "< 5", "unit": "%"}, {"measurement": "inhibition at 10 µM", "setting": "RXF 393, Renal cancer RXF 393, 10 μM", "result": 6.12, "unit": "%"}, {"measurement": "inhibition at 10 µM", "setting": "SF-268, CNS Cancer SF-268, 10 μM", "result": "< 5", "unit": "%"}, {"measurement": "inhibition at 10 µM", "setting": "SF-295, CNS Cancer SF-295, 10 μM", "result": 10.5, "unit": "%"}, {"measurement": "inhibition at 10 µM", "setting": "SF-539, CNS Cancer SF-539, 10 μM", "result": 5.07, "unit": "%"}, {"measurement": "inhibition at 10 µM", "setting": "SK-MEL-2, Melanoma SK-MEL-2, 10 μM", "result": "< 5", "unit": "%"}, {"measurement": "inhibition at 10 µM", "setting": "SK-MEL-5, Melanoma SK-MEL-5, 10 μM", "result": "< 5", "unit": "%"}, {"measurement": "inhibition at 10 µM", "setting": "SK-MEL-28, Melanoma SK-MEL-28, 10 μM", "result": "< 5", "unit": "%"}, {"measurement": "inhibition at 10 µM", "setting": "SK-OV-3, Ovarian cancer SK-OV-3, 10 μM", "result": "< 5", "unit": "%"}, {"measurement": "inhibition at 10 µM", "setting": "SN12C, Renal cancer SN12C, 10 μM", "result": 8.13, "unit": "%"}, {"measurement": "inhibition at 10 µM", "setting": "SNB-19, CNS Cancer SNB-19, 10 μM", "result": 5.89, "unit": "%"}, {"measurement": "inhibition at 10 µM", "setting": "SNB-75, CNS Cancer SNB-75, 10 μM", "result": "< 5", "unit": "%"}, {"measurement": "inhibition at 10 µM", "setting": "SW-620, Colon cancer SW-620, 10 μM", "result": "< 5", "unit": "%"}, {"measurement": "inhibition at 10 µM", "setting": "T47D, Breast cancer T-47D, 10 μM", "result": 12.1, "unit": "%"}, {"measurement": "inhibition at 10 µM", "setting": "TK-10, Renal cancer TK-10, 10 μM", "result": "< 5", "unit": "%"}, {"measurement": "inhibition at 10 µM", "setting": "U-251, CNS Cancer U251, 10 μM", "result": "< 5", "unit": "%"}, {"measurement": "inhibition at 10 µM", "setting": "UACC-62, Melanoma UACC-62, 10 μM", "result": 5.15, "unit": "%"}, {"measurement": "inhibition at 10 µM", "setting": "UACC-257, Melanoma UACC-257, 10 μM", "result": "< 5", "unit": "%"}, {"measurement": "inhibition at 10 µM", "setting": "UO-31, Renal cancer UO-31, 10 μM", "result": 12.9, "unit": "%"}]}
